# Source: patent US6589566B2, “Composition comprising theanine” (priority 1998, dated 2003)
# Key:
# mice = type: in vivo; details: oral administration of 2 g/kg
# Description: Theanine, formulated in the theanine-containing composition of the present invention, is a glutamic acid derivative contained in tea-leaves, which is the main component of deliciousness (umami) of tea. It is also used as a food additive for seasoning. […] As described above, the theanine is an extremely safe substance.
# [1] = system: women complaining of premenstrual syndrome symptoms; assay: Test Example 5: premenstrual syndrome questionnaire, powdered L-theanine; type: in vivo, humans; details: 20 women, 50 mg powdered L-theanine per day during corpus lutea stage
# Method: A test for assessing the premenstrual syndrome-suppressive effect of the inventive product was performed in 20 women complaining of 5 or more premenstrual syndrome symptoms. The inventive product used herein was powdered L-theanine as prepared in Example 1. Each subject was requested to measure their basal body temperature upon awaking for 2 months. […] During the test period, physical symptoms, mental symptoms and social symptoms were recorded in detail everyday. On the first day of the third menstruation, the test was terminated and a questionnaire survey was conducted. Questionnaire Survey Concerning Premenstrual Syndrome of Test Example 5 1. Were PMS symptoms suppressed ? 1) having remarkable effects; 2) having some effects; 3) having slight effects; 4) none. 2. For those selected 1), 2) or 3) in 1., were there any improvements in the daily life ? […] 3. For those selected 1), 2) or 3) in 1., please give specifics: […]
# ICR male mice = assay: Example 11: amount of spontaneous exercise, rotatable cage; type: in vivo; details: oral 10 ml of 1% by weight aqueous solution per 1 kg body weight, versus non-administered group
# Method: Ten ICR male mice were each orally administered with 10 ml of a 1% by weight theanine aqueous solution, per 1 kg of body weight, and the mice were allowed to stand in an inhalation box. The administered group of mice were compared with the 10 non-administered group of mice, wherein the amount of excercise was evaluated by counting the number of rotations of the rotatable cage for 60 minutes.
# male and female subjects = assay: Test Example 4: anxiety group after coffee extract beverage containing L-theanine; type: in vivo, humans; details: 10 times per day for one month, 7 subjects
# Method: Each of male and female subjects consisting of a total of 7 members was given a beverage prepared by dissolving the L-theanine obtained in Examples 1 and 2 at amounts of 0 mg, 60 mg, 300 mg or 1200 mg in 100 g of coffee extract in boiling water (equivalent to about 1 mg/kg, about 5 mg/kg, and about […], respectively) 10 times per day for one month.
# [2] = Theanine content 60 mg in 100 g coffee extract
# [3] = Theanine content 300 mg in 100 g coffee extract
# [4] = Theanine content 1200 mg in 100 g coffee extract
structure (smiles),measurement,setting,value
CCNC(=O)CC[C@H](N)C(=O)O [L-theanine],dead cases in acute toxicity test,mice,no dead cases
same,Were PMS symptoms suppressed? 4) none,[1],0 subjects (0%).
same,amount of exercise (number of rotations of the rotatable cage for 60 minutes),ICR male mice,significant decrease
same,High-Anxiety Group (number of subjects),male and female subjects; [2],2
same,Low-Anxiety Group (number of subjects),male and female subjects; [2],2
same,Moderate-Anxiety Group (number of subjects),male and female subjects; [2],3
same,High-Anxiety Group (number of subjects),male and female subjects; [3],0
same,Low-Anxiety Group (number of subjects),male and female subjects; [3],0
same,Moderate-Anxiety Group (number of subjects),male and female subjects; [3],1
same,High-Anxiety Group (number of subjects),male and female subjects; [4],0
same,Low-Anxiety Group (number of subjects),male and female subjects; [4],7
same,Moderate-Anxiety Group (number of subjects),male and female subjects; [4],0
